Counter-ions that a name gives are not always drawn. Like-named read-outs stand apart in the source and are kept apart here.
Assays:
Caco-2 cells = settings: Fig. 6e
[1] = target: T1, recombinant human matriptase (Homo sapiens, UniProt Q9Y5Y6); experiment: Enzyme inhibition assay with purified matriptase (Ki, dose-response); assay type: biochemical; settings: for matriptase activity, Mean (Fig. 2b): normalized, 0 nM = 100; for Ki: 30 min preincubation, substrate Boc-Gln-Ala-Arg-AMC
T1 construct: purchased R&D Systems (Minneapolis, MN, USA)
T1 sequence (Q9Y5Y6 1-855): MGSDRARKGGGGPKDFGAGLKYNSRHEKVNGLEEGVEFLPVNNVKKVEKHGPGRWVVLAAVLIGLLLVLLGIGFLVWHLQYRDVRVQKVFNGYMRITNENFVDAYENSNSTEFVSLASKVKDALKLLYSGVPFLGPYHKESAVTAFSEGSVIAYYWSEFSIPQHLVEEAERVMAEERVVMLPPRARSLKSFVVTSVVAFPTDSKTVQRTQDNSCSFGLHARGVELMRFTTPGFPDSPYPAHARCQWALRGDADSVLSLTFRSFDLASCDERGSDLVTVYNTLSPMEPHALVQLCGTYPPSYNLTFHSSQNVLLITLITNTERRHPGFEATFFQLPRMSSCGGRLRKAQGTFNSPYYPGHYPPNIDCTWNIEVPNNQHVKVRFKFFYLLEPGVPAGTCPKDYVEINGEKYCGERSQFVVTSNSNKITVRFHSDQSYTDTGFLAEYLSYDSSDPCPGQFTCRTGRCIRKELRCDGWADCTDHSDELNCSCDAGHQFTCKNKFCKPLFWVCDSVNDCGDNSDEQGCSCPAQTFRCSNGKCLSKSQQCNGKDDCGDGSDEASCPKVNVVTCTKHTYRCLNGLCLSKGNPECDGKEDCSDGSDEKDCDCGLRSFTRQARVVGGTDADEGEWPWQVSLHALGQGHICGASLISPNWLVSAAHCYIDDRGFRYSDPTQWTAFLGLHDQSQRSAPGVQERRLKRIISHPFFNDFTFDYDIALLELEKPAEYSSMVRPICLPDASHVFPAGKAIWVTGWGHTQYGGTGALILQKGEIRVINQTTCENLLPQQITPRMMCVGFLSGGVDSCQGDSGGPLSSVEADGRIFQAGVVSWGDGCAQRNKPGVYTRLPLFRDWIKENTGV

Row | Compound | Cell viability, Mean (0 nM = 100) (Caco-2 cells; compound 0.26 nM) | Cell viability, Mean (0 nM = 100) (Caco-2 cells; compound 1.28 nM) | Cell viability, Mean (0 nM = 100) (Caco-2 cells; compound 6.4 nM) | Cell viability, Mean (0 nM = 100) (Caco-2 cells; compound 32 nM) | Cell viability, Mean (0 nM = 100) (Caco-2 cells; compound 160 nM) | Cell viability, Mean (0 nM = 100) (Caco-2 cells; compound 800 nM) | Cell viability, Mean (0 nM = 100) (Caco-2 cells; compound 4000 nM) | Cell viability, Mean (0 nM = 100) (Caco-2 cells; compound 20000 nM) | Cell viability, Mean (0 nM = 100) (Caco-2 cells; compound 100000 nM) | matriptase activity, Mean (Fig. 2b) ([1]; 0.05 nM) | matriptase activity, Mean (Fig. 2b) ([1]; 0.1 nM) | matriptase activity, Mean (Fig. 2b) ([1]; 0.2 nM) | matriptase activity, Mean (Fig. 2b) ([1]; 1 nM) | matriptase activity, Mean (Fig. 2b) ([1]; 10 nM) | matriptase activity, Mean (Fig. 2b) ([1]; 1000 nM) | matriptase activity, Mean (Fig. 2b) ([1]; 50000 nM) | matriptase activity, Mean (Fig. 2b) ([1]; 500000 nM) | Ki [1] [nM] | matriptase activity, Mean (Fig. 2b) ([1]; 100 nM) | Selectivity index Matriptase ([1]; quotient Ki matriptase / Ki TMPRSS2)
1 | CN(C)C(=O)COC(=O)Cc1ccc(OC(=O)c2ccc(NC(=N)N)cc2)cc1 [CM, camostat mesylate, reference compound] | 104.56 | 104.124 | 104.38 | 101.009 | 106.562 | 101.849 | 104.127 | 103.706 | 93.2448 | 100.491 | 98.1997 | 86.1702 | 58.838 | 4.828 | 0.2455 | 0.08183 | 0.1637 | 0.6 |  | 
2 | ace-Arg-Pro-Arg-kbt [Compound 2] |  |  |  |  |  |  |  |  |  |  | 101.198 | 106.445 | 70.3881 | 45.9032 | 0.7667 | -0.2875 | -0.6229 | 3.3 | 8.529 | 0.9

From paper PMC9270327 (Communications Biology, 2022)
